Test results published in patent US20250114460A1, “NOVEL PLK1 DEGRADATION INDUCING COMPOUND” (UPPTHERA, INC., priority 2021, published 2025).

Target: T1, PLK1 (Homo sapiens, UniProt P53350)
T1 construct: endogenous in cells; host or cells: HeLa LgBit (Plk1-HiBit KI): HeLa stably expressing LgBit, with a CRISPR/Cas9 knock-in of HiBit at the endogenous PLK1 locus
Experiment: Luciferase assay for PLK1 in HeLa LgBit (Plk1-HiBit KI) cell line
Assay type: cell-based
Details: 300 nM compound, luminescence after 9 hours
How it was run: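 HeLa cells stably expressing LgBit, with HiBit knocked in at the C-terminus of endogenous Plk1, released from a 24 h 2 mM thymidine block and grown 18 h. Endurazine added, then compound at 300 nM; luminescence tracked in real time, expressed as ratio to DMSO.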

T1 sequence (P53350 whole entry): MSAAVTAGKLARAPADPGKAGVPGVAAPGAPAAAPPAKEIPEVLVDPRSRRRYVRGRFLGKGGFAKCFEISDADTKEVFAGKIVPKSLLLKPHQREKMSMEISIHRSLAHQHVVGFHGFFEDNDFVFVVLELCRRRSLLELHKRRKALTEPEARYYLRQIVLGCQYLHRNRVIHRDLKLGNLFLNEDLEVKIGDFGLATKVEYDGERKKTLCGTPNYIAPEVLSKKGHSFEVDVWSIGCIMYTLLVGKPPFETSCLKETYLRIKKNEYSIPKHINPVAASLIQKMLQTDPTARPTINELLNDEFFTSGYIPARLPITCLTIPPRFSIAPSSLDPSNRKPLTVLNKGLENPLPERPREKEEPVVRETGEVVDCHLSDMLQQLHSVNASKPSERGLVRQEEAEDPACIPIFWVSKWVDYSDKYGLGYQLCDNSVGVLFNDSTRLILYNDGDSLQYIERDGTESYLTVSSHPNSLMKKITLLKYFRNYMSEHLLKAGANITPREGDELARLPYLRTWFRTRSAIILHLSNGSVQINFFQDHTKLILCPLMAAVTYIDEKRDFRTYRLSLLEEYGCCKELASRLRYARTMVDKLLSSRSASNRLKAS

Activity: ratio of the luminescense value of each Exemplary Compound treatment group to DMSO treatment group	SMILES
+ (+<0.7)	COc1cc(N2CCC(CCN3CCN(c4ccc5c(c4)C(=O)N(C4CCC(=O)NC4=O)C5=O)CC3)CC2)c(F)cc1Nc1ncc2c(n1)N(C1CCCC1)CC(F)(F)C(=O)N2C (stereo not shown) [Compound 112, 5-(4-(2-(1-(4-((9-cyclopentyl-7,7-difluoro-5-methyl-6-oxo-6,7,8,9-tetrahydro-5H-pyrimido[4,5-b][1,4]diazepin-2-yl)amino)-2-fluoro-5-methoxyphenyl)piperidin-4-yl)ethyl)piperazin-1-yl)-2-(2,6-dioxopiperidin-3-yl)isoindoline-1,3-dione]
++ (++<0.6)	COc1cc(C(=O)Nc2ccc(OCCN3CCN(c4cccc5c4C(=O)N(C4CCC(=O)NC4=O)C5=O)CC3)cc2)c(F)cc1Nc1ncc2c(n1)N(C1CCCC1)CC(F)(F)C(=O)N2C (stereo not shown) [Compound 141, 4-((9-cyclopentyl-7,7-difluoro-5-methyl-6-oxo-6,7,8,9-tetrahydro-5H-pyrimido[4,5-b][1,4]diazepin-2-yl)amino)-N-(4-(2-(4-(2-(2,6-dioxopiperidin-3-yl)-1,3-dioxoisoindolin-4-yl)piperazin-1-yl)ethoxy)phenyl)-2-fluoro-5-methoxybenzamide]
++ (++<0.6)	COc1cc(C(=O)N[C@H]2CC[C@H](N3CCN(CCNc4cccc5c4C(=O)N(C4CCC(=O)NC4=O)C5=O)CC3)CC2)c(F)cc1Nc1ncc2c(n1)N(C1CCCC1)CC(F)(F)C(=O)N2C (stereo partly shown) [Compound 196, 4-((9-cyclopentyl-7,7-difluoro-5-methyl-6-oxo-6,7,8,9-tetrahydro-5H-pyrimido[4,5-b][1,4]diazepin-2-yl)amino)-N-((1r,4r)-4-(4-(2-((2-(2,6-dioxopiperidin-3-yl)-1,3-dioxoisoindolin-4-yl)amino)ethyl)piperazin-1-yl)cyclohexyl)-2-fluoro-5-methoxybenzamide]
+ (+<0.7)	COc1cc(C(=O)N2CCN(CCCCNc3ccc4c(c3)C(=O)N(C3CCC(=O)NC3=O)C4=O)CC2)c(F)cc1Nc1ncc2c(n1)N(C1CCCC1)CC(F)(F)C(=O)N2C (stereo not shown) [Compound 187, 5-((4-(4-(4-((9-cyclopentyl-7,7-difluoro-5-methyl-6-oxo-6,7,8,9-tetrahydro-5H-pyrimido[4,5-b][1,4]diazepin-2-yl)amino)-2-fluoro-5-methoxybenzoyl)piperazin-1-yl)butyl)amino)-2-(2,6-dioxopiperidin-3-yl)isoindoline-1,3-dione]
++ (++<0.6)	COc1cc(C(=O)NC2CCN(C(=O)CCN3CCN(c4cccc5c4C(=O)N(C4CCC(=O)NC4=O)C5=O)CC3)CC2)ccc1Nc1ncc2c(n1)N(C1CC1)CC(F)(F)C(=O)N2C (stereo not shown) [Compound 67, 4-((9-cyclopropyl-7,7-difluoro-5-methyl-6-oxo-6,7,8,9-tetrahydro-5H-pyrimido[4,5-b][1,4]diazepin-2-yl)amino)-N-(1-(3-(4-(2-(2,6-dioxopiperidin-3-yl)-1,3-dioxoisoindolin-4-yl)piperazin-1-yl)propanoyl)piperidin-4-yl)-3-methoxybenzamide]
+ (+<0.7)	COc1cc(N2CCC(CN3CCN(c4ccc5c(c4)C(=O)N(C4CCC(=O)NC4=O)C5=O)CC3)CC2)c(F)cc1Nc1ncc2c(n1)N(C1CCCC1)CC(F)(F)C(=O)N2C (stereo not shown) [Compound 111, 5-(4-((1-(4-((9-cyclopentyl-7,7-difluoro-5-methyl-6-oxo-6,7,8,9-tetrahydro-5H-pyrimido[4,5-b][1,4]diazepin-2-yl)amino)-2-fluoro-5-methoxyphenyl)piperidin-4-yl)methyl)piperazin-1-yl)-2-(2,6-dioxopiperidin-3-yl)isoindoline-1,3-dione]
+ (+<0.7)	COc1cc(C(=O)NC2CCCN(CC3CCN(c4cccc5c4C(=O)N(C4CCC(=O)NC4=O)C5=O)CC3)C2)ccc1Nc1ncc2c(n1)N(C1CCCC1)CC(F)(F)C(=O)N2C (stereo not shown) [Compound 126, 4-((9-cyclopentyl-7,7-difluoro-5-methyl-6-oxo-6,7,8,9-tetrahydro-5H-pyrimido[4,5-b][1,4]diazepin-2-yl)amino)-N-(1-((1-(2-(2,6-dioxopiperidin-3-yl)-1,3-dioxoisoindolin-4-yl)piperidin-4-yl)methyl)piperidin-3-yl)-3-methoxybenzamide]
++ (++<0.6)	COc1cc(C(=O)NC2CCN(C(=O)CCN3CCN(c4ccc5c(c4)CN(C4CCC(=O)NC4=O)C5=O)CC3)CC2)c(F)cc1Nc1ncc2c(n1)N(C1CCCC1)CC(F)(F)C(=O)N2C (stereo not shown) [Compound 61, 4-((9-cyclopentyl-7,7-difluoro-5-methyl-6-oxo-6,7,8,9-tetrahydro-5H-pyrimido[4,5-b][1,4]diazepin-2-yl)amino)-N-(1-(3-(4-(2-(2,6-dioxopiperidin-3-yl)-1-oxoisoindolin-5-yl)piperazin-1-yl)propanoyl)piperidin-4-yl)-2-fluoro-5-methoxybenzamide]
+ (+<0.7)	COc1cc(C(=O)N2CCN(CCCNc3cccc4c3C(=O)N(C3CCC(=O)NC3=O)C4=O)CC2)c(F)cc1Nc1ncc2c(n1)N(C1CCCC1)CC(F)(F)C(=O)N2C (stereo not shown) [Compound 183, 4-((3-(4-(4-((9-cyclopentyl-7,7-difluoro-5-methyl-6-oxo-6,7,8,9-tetrahydro-5H-pyrimido[4,5-b][1,4]diazepin-2-yl)amino)-2-fluoro-5-methoxybenzoyl)piperazin-1-yl)propyl)amino)-2-(2,6-dioxopiperidin-3-yl)isoindoline-1,3-dione]
++ (++<0.6)	COc1cc(C(=O)NC2CCN(C(=O)CCCCN3CCN(c4cccc5c4C(=O)N(C4CCC(=O)NC4=O)C5=O)CC3)CC2)ccc1Nc1ncc2c(n1)N(C1CCCC1)CC(F)(F)C(=O)N2C (stereo not shown) [Compound 65, 4-((9-cyclopentyl-7,7-difluoro-5-methyl-6-oxo-6,7,8,9-tetrahydro-5H-pyrimido[4,5-b][1,4]diazepin-2-yl)amino)-N-(1-(5-(4-(2-(2,6-dioxopiperidin-3-yl)-1,3-dioxoisoindolin-4-yl)piperazin-1-yl)pentanoyl)piperidin-4-yl)-3-methoxybenzamide]
++ (++<0.6)	COc1cc(C(=O)N2CCN(CCCNc3ccc4c(c3)C(=O)N(C3CCC(=O)NC3=O)C4=O)CC2)c(F)cc1Nc1ncc2c(n1)N(C1CCCC1)CC(F)(F)C(=O)N2C (stereo not shown) [Compound 186, 5-((3-(4-(4-((9-cyclopentyl-7,7-difluoro-5-methyl-6-oxo-6,7,8,9-tetrahydro-5H-pyrimido[4,5-b][1,4]diazepin-2-yl)amino)-2-fluoro-5-methoxybenzoyl)piperazin-1-yl)propyl)amino)-2-(2,6-dioxopiperidin-3-yl)isoindoline-1,3-dione]
++ (++<0.6)	COc1cc(C(=O)NC2CCN(CCSc3cccc4c3C(=O)N(C3CCC(=O)NC3=O)C4=O)CC2)c(F)cc1Nc1ncc2c(n1)N(C1CCCC1)CC(F)(F)C(=O)N2C (stereo not shown) [Compound 11, 4-((9-cyclopentyl-7,7-difluoro-5-methyl-6-oxo-6,7,8,9-tetrahydro-5H-pyrimido[4,5-b][1,4]diazepin-2-yl)amino)-N-(1-(2-((2-(2,6-dioxopiperidin-3-yl)-1,3-dioxoisoindolin-4-yl)thio)ethyl)piperidin-4-yl)-2-fluoro-5-methoxybenzamide]
++ (++<0.6)	COc1cc(C(=O)NC2CCN(C[C@@H]3CCN(c4cccc5c4C(=O)N(C4CCC(=O)NC4=O)C5=O)C3)CC2)ccc1Nc1ncc2c(n1)N(C1CCCC1)CC(F)(F)C(=O)N2C (stereo partly drawn) [Compound 47, 4-((9-cyclopentyl-7,7-difluoro-5-methyl-6-oxo-6,7,8,9-tetrahydro-5H-pyrimido[4,5-b][1,4]diazepin-2-yl)amino)-N-(1-(((3S)-1-(2-(2,6-dioxopiperidin-3-yl)-1,3-dioxoisoindolin-4-yl)pyrrolidin-3-yl)methyl)piperidin-4-yl)-3-methoxybenzamide]
+ (+<0.7)	COc1cc(C(=O)N2CCN(CCCCNc3cccc4c3C(=O)N(C3CCC(=O)NC3=O)C4=O)CC2)c(F)cc1Nc1ncc2c(n1)N(C1CCCC1)CC(F)(F)C(=O)N2C (stereo not shown) [Compound 184, 4-((4-(4-(4-((9-cyclopentyl-7,7-difluoro-5-methyl-6-oxo-6,7,8,9-tetrahydro-5H-pyrimido[4,5-b][1,4]diazepin-2-yl)amino)-2-fluoro-5-methoxybenzoyl)piperazin-1-yl)butyl)amino)-2-(2,6-dioxopiperidin-3-yl)isoindoline-1,3-dione]
++ (++<0.6)	COc1cc(C(=O)N2CCC(N3CCN(CCOCCNc4cccc5c4C(=O)N(C4CCC(=O)NC4=O)C5=O)CC3)CC2)c(F)cc1Nc1ncc2c(n1)N(C1CCCC1)CC(F)(F)C(=O)N2C (stereo not shown) [Compound 189, 4-((2-(2-(4-(1-(4-((9-cyclopentyl-7,7-difluoro-5-methyl-6-oxo-6,7,8,9-tetrahydro-5H-pyrimido[4,5-b][1,4]diazepin-2-yl)amino)-2-fluoro-5-methoxybenzoyl)piperidin-4-yl)piperazin-1-yl)ethoxy)ethyl)amino)-2-(2,6-dioxopiperidin-3-yl)isoindoline-1,3-dione]

SMILES	Activity: ratio of the luminescense value of each Exemplary Compound treatment group to DMSO treatment group
COc1cc(C(=O)NN2CCC(N3CC4(CCN(c5ccc6c(c5)C(=O)N(C5CCC(=O)NC5=O)C6=O)CC4)C3)CC2)ccc1Nc1ncc2c(n1)N(C(C)C)CC(F)(F)C(=O)N2C (stereo not shown) [Compound 214, 4-((7,7-difluoro-9-isopropyl-5-methyl-6-oxo-6,7,8,9-tetrahydro-5H-pyrimido[4,5-b][1,4]diazepin-2-yl)amino)-N-(4-(7-(2-(2,6-dioxopiperidin-3-yl)-1,3-dioxoisoindolin-5-yl)-2,7-diazaspiro[3.5]nonan-2-yl)piperidin-1-yl)-3-methoxybenzamide]	+ (+<0.7)
